Data as given in ChEMBL document CHEMBL1201862, “PubChem BioAssay data set” (2004).
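Method: 48-hour compound exposure of cells in 96-well plates, five concentrations, linear interpolation of endpoints. GI50 = concentration required for 50% inhibition of growth.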 Calls of active or inactive are those of the source. No stated cut-off is given here; in the data, active = GI50 up to about 1.1 µM and inactive = higher.

Experiments:
Experiment in all cases: DTP human tumour cell line panel, 48 h
[1] = tested on: DMS-114
[2] = tested on: OVCAR-3
[3] = tested on: OVCAR-5
[4] = tested on: SR
[5] = tested on: DLD-1
[6] = tested on: SF-539
[7] = tested on: M19-MEL
[8] = tested on: TK-10
[9] = tested on: OVCAR-8
[10] = tested on: LOX IMVI
[11] = tested on: A498
[12] = tested on: OVCAR-4
[13] = tested on: RXF 631
[14] = tested on: SF-295
[15] = tested on: CCRF-CEM
[16] = tested on: A549
[17] = tested on: IGROV-1
[18] = tested on: M14
[19] = tested on: HCT-15
[20] = tested on: COLO 205
[21] = tested on: DMS-273
[22] = tested on: SK-OV-3
[23] = tested on: UO-31
[24] = tested on: Malme-3M
[25] = tested on: HOP-18
[26] = tested on: MOLT-4
[27] = tested on: EKVX
[28] = tested on: KM12
[29] = tested on: SNB-19
[30] = tested on: SK-MEL-5
[31] = tested on: UACC-62
[32] = tested on: U-251
[33] = tested on: SF-268
[34] = tested on: SNB-78
[35] = tested on: SW-620
[36] = tested on: RXF 393
[37] = tested on: 786-0
[38] = tested on: SN12C
[39] = tested on: LXFL 529
[40] = tested on: HL-60
[41] = tested on: HCC 2998
[42] = tested on: NCI-H460
[43] = tested on: SK-MEL-28
[44] = tested on: RPMI-8226
[45] = tested on: NCI-H23
[46] = tested on: SNB-75
[47] = tested on: K562
[48] = tested on: ACHN
[49] = tested on: HT-29
[50] = tested on: KM-20L2
[51] = tested on: HCT-116
[52] = tested on: NCI-H226
[53] = tested on: XF498
[54] = tested on: UACC-257
[55] = tested on: HOP-92
[56] = tested on: HOP-62
[57] = tested on: SK-MEL-2
[58] = tested on: NCI-H522

Measured: GI50

CC(C)(C)OC1=C(OC(C)(C)C)C(O)(c2ccc(Cl)cc2)C1=O (centres undefined)
> 100 µM: [19]
inactive: [1] > 100 µM | [2] > 100 µM | [3] > 100 µM | [4] > 100 µM | [5] > 100 µM | [6] > 100 µM | [7] > 100 µM | [8] > 100 µM | [9] > 100 µM | [10] > 100 µM | [11] > 100 µM | [12] > 100 µM | [13] 86.5 µM | [14] > 100 µM | [15] > 100 µM | [16] > 100 µM | [17] > 100 µM | [18] > 100 µM | [20] > 100 µM | [21] > 100 µM | [22] > 100 µM | [23] > 100 µM | [24] > 100 µM | [25] > 100 µM | [26] > 100 µM | [27] > 100 µM | [28] > 100 µM | [29] > 100 µM | [30] > 100 µM | [31] > 100 µM | [32] > 100 µM | [33] > 100 µM | [34] > 100 µM | [35] > 100 µM | [36] > 100 µM | [37] > 100 µM | [38] > 100 µM | [39] > 100 µM | [40] > 100 µM | [41] > 100 µM | [42] > 100 µM | [43] > 100 µM | [44] > 100 µM | [45] > 100 µM | [46] 99.3 µM | [47] > 100 µM | [48] > 100 µM | [49] > 100 µM

COc1ccc(-c2nnc(-c3c(C)n(C)n(-c4ccccc4)c3=O)o2)cc1
> 100 µM: [19]
inactive: [50] > 100 µM | [1] > 100 µM | [2] > 100 µM | [4] > 100 µM | [51] > 100 µM | [5] > 100 µM | [6] > 100 µM | [7] > 100 µM | [8] > 100 µM | [9] > 100 µM | [10] > 100 µM | [11] > 100 µM | [12] > 100 µM | [52] > 100 µM | [14] > 100 µM | [15] > 100 µM | [16] > 100 µM | [17] > 100 µM | [18] > 100 µM | [20] > 100 µM | [21] > 100 µM | [22] > 100 µM | [23] > 100 µM | [24] > 100 µM | [25] > 100 µM | [26] > 100 µM | [27] > 100 µM | [28] > 100 µM | [53] > 100 µM | [29] > 100 µM | [54] > 100 µM | [31] > 100 µM | [32] > 100 µM | [33] > 100 µM | [55] > 100 µM | [34] 68.7 µM | [35] > 100 µM | [36] > 100 µM | [37] > 100 µM | [38] > 100 µM | [39] > 100 µM | [40] > 100 µM | [56] > 100 µM | [57] > 100 µM | [41] > 100 µM | [42] > 100 µM | [43] > 100 µM | [58] > 100 µM | [44] > 100 µM | [45] > 100 µM | [46] > 100 µM | [47] > 100 µM | [48] > 100 µM | [49] > 100 µM
